Data on 20 molecules can be found in EP3917907B1, “MODULATORS OF POTASSIUM ION CHANNELS AND USES THEREOF” (Universitá Degli Studi Di Salerno, priority 2019, dated 2020).

Structures are written as SMILES.

Series [1] in a line: Solution stability (HPLC, extracellular solution, ambient temperature). In kind it is physicochemical. To be noted: percentage of degradation after 6 h at ambient temperature; 100 ppm in extracellular solution pH 7.4. The method, then: (§1) In order to study the solution stability and photostability of the potassium channel modulators object of the present invention, a stock solution of the proper analyte (1 mg/mL) in dimethylsulfoxide (DMSO) has been prepared. This solution has been then diluted to a concentration of 100 ppm using extracellular solution containing (in mM): 138 NaCl, 2 CaCl2, 5.4 KCl, 1 MgCl2, 10 glucose, and 10 HEPES, at pH 7.4, adjusted with NaOH. To measure solution stability, the diluted solutions have been maintained at ambient temperature for 6 h. To measure photostability, the diluted solutions have been irradiated for 6 h using a Oriel Sol3A Solar Simulator (Newport corporation, Irvine, CA, USA) with a 12x12 inches output beam. Aliquots of solution have been withdrawn after 6h and analyzed by HPLC using a Kinetex C18, 150 mm × 4.6 mm × 2.6 µm (Phenomenex, Bologna, Italy) as stationary phase and a mobile phase constituted by A: H2O/CH3CN (80:20) and B: CH3CN. Gradient elution has been performed from 20% to 90% of B in 7.50 minutes and from 90% to 20% of B in 1 minute. The pump flux has been set to 1.5 mL/min. Column has been thermostatted at 40°C during analysis. Results are espressed in Table 3 as percentage of degradation of the product calculated as ratio between the peak area of the analyte at time 0 (Pa0) and after 6h (Pa6) using the following formula: % degradation = (Pa0−Pa6)/Pa0 *100. [formula]

Series [2] can be described thus: Photostability (HPLC, solar simulator irradiation). The class given is physicochemical. To be noted: percentage of degradation after 6 h irradiation with solar simulator; 100 ppm in extracellular solution pH 7.4. As to the method: as §1
Series [3] addresses T1, Kv7.2 (Homo sapiens, UniProt O43526).
T1 construct: expressed in transfected cells; host or cells: CHO cells (ATCC CRL-9618), transient transfection, pcDNA3.1(+)
In words: Whole-cell patch-clamp on CHO cells transiently expressing Kv7.2. The class given is cell-based. The conditions noted are these: CHO cells, mean±SEM, >1 activating, <1 inhibiting; for Idrug/Ictl at 0 mV: ratio of ramp-evoked Kv7.2 current amplitude in presence and absence of drug at 0 mV; for Idrug/Ictl at -40 mV: ratio of ramp-evoked Kv7.2 current amplitude in presence and absence of drug at -40 mV. As to the method:
According to the experimental protocol, these plasmids were expressed individually or in combination (in particular of Kv7.2 and Kv7.3), together with a plasmid-expressing enhanced green fluorescent protein (Clontech, Palo Alto, CA) used as a transfection marker. Total cDNA in the transfection mixture was kept at 4 µg. CHO cells were grown in 100-mm plastic Petri dishes in Dulbecco's modified Eagle's medium containing 10% fetal bovine serum, nonessential amino acids (0.1 mM), penicillin (50 U/ml), and streptomycin ([…]) in a humidified atmosphere at 37°C with 5% CO2. The cells were plated on glass coverslips coated with poly-L-lysine, and transfected one day after plating with the appropriate cDNA using Lipofectamine 2000 (Life Technologies), according to the manufacturer's protocol.
Currents from CHO cells were recorded at room temperature (20-22°C) 24 hours after trasfection using the whole-cell configuration of the patch-clamp technique, with glass micropipettes of 3-5 MΩ resistance. During the recording, constant perfusion of extracellular solution was maintained. The extracellular solution contained (in mM): 138 NaCl, 2 CaCl2, 5.4 KCl, 1 MgCl2, 10 glucose, and 10 HEPES, at pH 7.4, adjusted with NaOH. The pipette (intracellular) solution contained (in mM): 140 KCl, 2 MgCl2, 10 EGTA, 10 HEPES, 5 Mg^2+-ATP, at pH 7.3-7.4, adjusted with KOH. Currents were recorded using an Axopatch-200A amplifier, filtered at 5 kHz, and digitized using a DigiData 1440A (Molecular Devices). The pCLAMP software (version 10.2, Molecular Devices) was used for data acquisition and analysis. To evaluate the activity of exemplary compounds on Kv7.2 (see Table 1), as well as on Kv7.1, Kv7.2/7.3, Kv7.3 and Kv7.4 channels for selected compounds (see Table 2), the cells were clamped at -80 mV and currents were elicited by 3-s voltage ramps from -80 mV to +20 mV in the presence and absence of each compound. […] The effects of drugs were expressed as shift in the ramp-voltage (ΔV) calculated at 20% of the maximal current (Miceli et al, Proc Natl Acad Sci U S A. 2013, 110(11):4386-91). Curves were fitted using the following equation: y=max/(1+x/EC50)n, where x is the drug concentration, n is the Hill coefficient and max is the maximal value achieved, as previously described (Ambrosino et al, Br J Pharmacol. 2013, 168(6):1430-1444). Data analysis and fit were performed using Sigmaplot (version 12.3).
Ramp-evoked Kv7.2 currents were analyzed by measuring the currents at -40 mV (a membrane potential value close to the activation threshold) and at 0 mV (a membrane potential value at which Kv7.2 conductance is largely saturated). In particular, -40 mV represents the threshold potential for spike initiation and 0 mV represents instead the membrane potential value at which maximal conductance of the channel is achieved.
In Table 1, the effect of exemplary compounds of the invention is expressed as the ratio between current amplitude in the presence (Idrug) and absence (Ictl) of the drug at these two membrane voltages. […]
(In general: Patch clamp records ionic current or voltage across a cell membrane.)

As for `COc1ccc(CNc2ccc(NS(=O)(=O)C3CCCCC3)cc2)cc1` [N-(4-((4-methoxybenzyl)amino)phenyl) cyclohexanesulfonamide], in series [1], the Solution stability result was “B (20%< degradation<40%)”. In addition, the Photostability result in series [2] is recorded as “C (degradation > 40%)”.
Turning to `O=C(c1ccc(F)cc1)N1CCc2cc(NS(=O)(=O)C3CCCCC3)ccc21` [N-(1-(4-fluorobenzoyl)indolin-5-yl)cyclohexanesulfonamide], in series [3], the “Idrug/Ictl at 0 mV” value is reported as 1.22±0.07 and the “Idrug/Ictl at -40 mV” value is listed as 1.85±0.30. Also, the Solution stability result in series [1] is on record as “A (degradation lower than 20%)”. Also, the Photostability result in series [2] is listed as “B (20%< degradation<40%)”.
Consider `O=S(=O)(Nc1cc(F)c2c(ccn2Cc2ccc(C(F)(F)F)cc2)c1)C1CCCCC1` [N-(7-fluoro-1-(4-(trifluoromethyl)benzyl)-1H-indol-5-yl) cyclohexanesulfonamide], for which the Solution stability entry in series [1] is given as “A (degradation lower than 20%)”. The Photostability result in series [2] is given as “A (degradation lower than 20%)”.
`O=[N+]([O-])c1cc(Br)ccc1CN1CCc2cc(NS(=O)(=O)C3CCCCC3)ccc21` [N-(1-(4-bromo-2-nitrobenzyl)indolin-5-yl)cyclohexanesulfonamide]: in series [3], the “Idrug/Ictl at 0 mV” value is listed as 3.09±0.52 and the “Idrug/Ictl at -40 mV” value came to 7.27±1.32. Also, in series [1], the Solution stability entry is “B (20%< degradation<40%)”. For the same molecule, the Photostability entry in series [2] is recorded as “C (degradation > 40%)”.
Take `O=S(=O)(Nc1ccc2c(c1)CCN2Cc1ccc(F)cc1)C1CCCCC1` [N-(1-(4-fluorobenzyl)indolin-5-yl)cyclohexanesulfonamide]: the Solution stability entry in series [1] was “C (degradation > 40%)”. Moreover, in series [2], the Photostability entry is on record as “C (degradation > 40%)”.
On to `O=S(=O)(Nc1ccc2c(ccn2Cc2ccc(C(F)(F)F)cc2O)c1)C1CCCCC1` [N-(1-(2-hydroxy-4-(trifluoromethyl)benzyl)-1H-indol-5-yl)cyclohexanesulfonamide], for which the Solution stability result in series [1] was “A (degradation lower than 20%)”. Further, in series [2], the Photostability result is reported as “A (degradation lower than 20%)”.
For `CCc1cn(Cc2ccc(C(F)(F)F)cc2)c2ccc(NS(=O)(=O)C3CCCCC3)cc12` [N-(3-ethyl-1-(4-(trifluoromethyl)benzyl)-1H-indol-5-yl) cyclohexanesulfonamide], in series [1], the Solution stability entry is “A (degradation lower than 20%)”. The Photostability result in series [2] is given as “A (degradation lower than 20%)”.
On to `CCc1cccc(S(=O)(=O)Nc2ccc(NCc3ccc(OC)cc3)cc2)c1` [3-ethyl-N-(4-((4-methoxybenzyl)amino)phenyl)benze nesulfonamide], for which the Solution stability result in series [1] is on record as “B (20%< degradation<40%)”. The Photostability result in series [2] was “C (degradation > 40%)”.
As for `O=C(Cn1ccc2cc(NS(=O)(=O)CC3CCCCC3)ccc21)c1ccc(Br)cc1` [N-(1-(2-(4-bromophenyl)-2-oxoethyl)-1H-indol-5-yl)-1-cyclohexylmethanesulfonamide], in series [1], the Solution stability result is “A (degradation lower than 20%)”. Besides, the Photostability entry in series [2] was “B (20%< degradation<40%)”.
With `O=S(=O)(Nc1ccc(NCc2ccc(F)cc2)c(F)c1)C1CCCCC1` [N-(3-fluoro-4-((4-fluorobenzyl)amino)phenyl) cyclohexanesulfonamide], in series [3], the “Idrug/Ictl at 0 mV” value is 0.83±0.10 and the “Idrug/Ictl at -40 mV” value is 0.78±0.15.
For the molecule `O=C(Cc1ccc(Cl)cc1)n1ccc2cc(NS(=O)(=O)C3CCCCC3)ccc21` [N-(1-(2-(4-chlorophenyl)acetyl)-1H-indol-5-yl) cyclohexanesulfonamide], the Solution stability result in series [1] was “A (degradation lower than 20%)”. In addition, in series [2], the Photostability entry is “A (degradation lower than 20%)”.
As to `Cc1cc2c(c(C)c1NS(=O)(=O)C1CCCCC1)CCN2Cc1ccc(C(F)(F)F)cc1` [N-(4,6-dimethyl-1-(4-(trifluoromethyl)benzyl)indolin-5-yl)cyclohexanesulfonamide], in series [1], the Solution stability entry is “A (degradation lower than 20%)”. Also, the Photostability result in series [2] is given as “B (20%< degradation<40%)”.
As for `COc1ccc(CN(C)c2ccc(NS(=O)(=O)C3CCCCC3)cc2)cc1` [N-(4-((4-methoxybenzyl)(methyl)amino)phenyl) cyclohexanesulfonamide], in series [1], the Solution stability entry is recorded as “B (20%< degradation<40%)”. Moreover, the Photostability entry in series [2] was “B (20%< degradation<40%)”.
`O=S(=O)(CC1CCCCC1)Nc1ccc2c(ccn2Cc2ccc(F)cc2)c1` [1-cyclohexyl-N-(1-(4-fluorobenzyl)-1H-indol-5-yl)methanesulfonamide]: in series [1], the Solution stability result is reported as “A (degradation lower than 20%)”. Further, the Photostability result in series [2] is “A (degradation lower than 20%)”.
As for `COc1ccc([C@@H](C)Nc2ccc(NS(=O)(=O)C3CCCCC3)cc2)cc1` [(R)-N-(4-((1-(4-methoxyphenyl)ethyl)amino)phenyl) cyclohexanesulfonamide], in series [1], the Solution stability entry was “B (20%< degradation<40%)”. The Photostability entry in series [2] is “C (degradation > 40%)”.
For `CC(C)(C)CNC(=S)Nc1ccc2c(c1)CCN2Cc1ccc(F)cc1` [1-(1-(4-fluorobenzyl)indolin-5-yl)-3-neopentylthiourea], in that order: “A (degradation lower than 20%)” and “B (20%< degradation<40%)”.
Consider `Cc1c(NS(=O)(=O)C2CCCCC2)ccc2c1ccn2Cc1ccc(C(F)(F)F)cc1` [N-(4-methyl-1-(4-(trifluoromethyl)benzyl)-1H-indol-5-yl)cyclohexanesulfonamide], for which, in series [1], the Solution stability entry is “A (degradation lower than 20%)”. Also, in series [2], the Photostability result is on record as “B (20%< degradation<40%)”.
For `COc1ccc([C@H](C)Nc2ccc(NS(=O)(=O)C3CCCCC3)cc2)cc1` [(S)-N-(4-((1-(4-methoxyphenyl)ethyl)amino)phenyl) cyclohexanesulfonamide], in that order: “B (20%< degradation<40%)” and “C (degradation > 40%)”.
`Cc1cc2cc(NS(=O)(=O)C3CCCCC3)ccc2n1Cc1ccc(F)cc1N` [N-(1-(2-amino-4-fluorobenzyl)-2-methyl-1H-indol-5-yl)cyclohexanesulfonamide]: the Solution stability result in series [1] was “A (degradation lower than 20%)”. Moreover, in series [2], the Photostability entry was “B (20%< degradation<40%)”.
With `O=S(=O)(Nc1cc(F)c2c(c1)CCN2Cc1ccc(C(F)(F)F)cc1)C1CCCCC1` [N-(7-fluoro-1-(4-(trifluoromethyl)benzyl)indolin-5-yl) cyclohexanesulfonamide], the Solution stability entry in series [1] is reported as “B (20%< degradation<40%)”. Also, the Photostability result in series [2] is given as “B (20%< degradation<40%)”.
